Data reported in the NIST ThermoML archive (doi:10.1016/j.tca.2012.01.013).
Numbers after ± are expanded uncertainties.

Columns and labels:
[1] = 101 kPa, Liquid, Vibrating tube method
[2] = refractive index (Na D-line) (dimensionless); conditions: 101.33 kPa, Liquid, Standard Abbe refractometry
[3] = xn = mol fraction of the nth substance listed; conditions: 101 kPa, Liquid, Vibrating tube method, x2 = 0
[4] = refractive index (Na D-line) (dimensionless); xn = mol fraction of the nth substance listed; conditions: 101 kPa, Liquid, Standard Abbe refractometry, x2 = 0

CCCCO [butan-1-ol]
Conditions | mass density, [1] [kg/m3] | refractive index, [2]
288.15 K | 813.373 ± 0.14 | 1.40135 ± 0.00036
293.15 K | 809.573 ± 0.14 | 1.39932 ± 0.00036
298.15 K | 805.762 ± 0.15 | 1.3973 ± 0.00036
303.15 K | 801.923 ± 0.15 | 1.39523 ± 0.00036
308.15 K | 798.053 ± 0.15 | 1.39318 ± 0.00036
313.15 K | 794.147 ± 0.15 | 1.3911 ± 0.00036
318.15 K | 790.231 ± 0.15 | 1.38901 ± 0.00036
323.15 K | 786.238 ± 0.15 | 1.38688 ± 0.00036

CCCCO [butan-1-ol] + COC(=O)CCCCC(=O)OC
Conditions | mass density, [3] [kg/m3] | refractive index, [4]
288.15 K | 813.373 ± 0.14 | 1.40135 ± 0.00036
293.15 K | 809.573 ± 0.14 | 1.39932 ± 0.00036
298.15 K | 805.762 ± 0.15 | 1.3973 ± 0.00036
303.15 K | 801.923 ± 0.15 | 1.39523 ± 0.00036
308.15 K | 798.053 ± 0.15 | 1.39318 ± 0.00036
313.15 K | 794.147 ± 0.15 | 1.3911 ± 0.00036
318.15 K | 790.231 ± 0.15 | 1.38901 ± 0.00036
323.15 K | 786.238 ± 0.15 | 1.38688 ± 0.00036

CCCCO [butan-1-ol] + COC(=O)c1ccccc1C(=O)OC
Conditions | mass density, [3] [kg/m3] | refractive index, [4]
288.15 K | 813.373 ± 0.14 | 1.40135 ± 0.00036
293.15 K | 809.573 ± 0.14 | 1.39932 ± 0.00036
298.15 K | 805.762 ± 0.15 | 1.3973 ± 0.00036
303.15 K | 801.923 ± 0.15 | 1.39523 ± 0.00036
308.15 K | 798.053 ± 0.15 | 1.39318 ± 0.00036
313.15 K | 794.147 ± 0.15 | 1.3911 ± 0.00036
318.15 K | 790.231 ± 0.15 | 1.38901 ± 0.00036
323.15 K | 786.238 ± 0.15 | 1.38688 ± 0.00036

CCC(C)O (stereo unspecified) [butan-2-ol]
Conditions | mass density, [1] [kg/m3] | refractive index, [2]
288.15 K | 810.689 ± 0.24 | 1.39951 ± 0.0004
293.15 K | 806.646 ± 0.24 | 1.39736 ± 0.0004
298.15 K | 802.528 ± 0.24 | 1.39515 ± 0.0004
303.15 K | 798.326 ± 0.24 | 1.39293 ± 0.0004
308.15 K | 794.03 ± 0.24 | 1.39064 ± 0.0004
313.15 K | 789.632 ± 0.24 | 1.38832 ± 0.0004
318.15 K | 785.117 ± 0.24 | 1.38596 ± 0.0004
323.15 K | 780.515 ± 0.24 | 1.38352 ± 0.0004

CCC(C)O (stereo unspecified) [butan-2-ol] + COC(=O)CCCCC(=O)OC
Conditions | mass density, [3] [kg/m3] | refractive index, [4]
288.15 K | 810.689 ± 0.24 | 1.39951 ± 0.0004
293.15 K | 806.646 ± 0.24 | 1.39736 ± 0.0004
298.15 K | 802.528 ± 0.24 | 1.39515 ± 0.0004
303.15 K | 798.326 ± 0.24 | 1.39293 ± 0.0004
308.15 K | 794.03 ± 0.24 | 1.39064 ± 0.0004
313.15 K | 789.632 ± 0.24 | 1.38832 ± 0.0004
318.15 K | 785.117 ± 0.24 | 1.38596 ± 0.0004
323.15 K | 780.515 ± 0.24 | 1.38352 ± 0.0004

CCC(C)O (stereo unspecified) [butan-2-ol] + COC(=O)c1ccccc1C(=O)OC
Conditions | mass density, [3] [kg/m3] | refractive index, [4]
288.15 K | 810.689 ± 0.24 | 1.39951 ± 0.0004
293.15 K | 806.646 ± 0.24 | 1.39736 ± 0.0004
298.15 K | 802.528 ± 0.24 | 1.39515 ± 0.0004
303.15 K | 798.326 ± 0.24 | 1.39293 ± 0.0004
308.15 K | 794.03 ± 0.24 | 1.39064 ± 0.0004
313.15 K | 789.632 ± 0.24 | 1.38832 ± 0.0004
318.15 K | 785.117 ± 0.24 | 1.38596 ± 0.0004
323.15 K | 780.515 ± 0.24 | 1.38352 ± 0.0004

CCC(C)=O [butanone]
Conditions | mass density, [1] [kg/m3] | refractive index, [2]
288.15 K | 810.133 ± 0.15 | 1.38153 ± 0.00036
293.15 K | 804.926 ± 0.15 | 1.37892 ± 0.00036
298.15 K | 799.695 ± 0.15 | 1.37631 ± 0.00036
303.15 K | 794.435 ± 0.16 | 1.37366 ± 0.00036
308.15 K | 789.142 ± 0.16 | 1.37102 ± 0.00036
313.15 K | 783.814 ± 0.15 | 1.36834 ± 0.00036
318.15 K | 778.451 ± 0.15 | 1.36565 ± 0.00036
323.15 K | 773.047 ± 0.16 | 1.36294 ± 0.00036

CCC(C)=O [butanone] + COC(=O)CCCCC(=O)OC
Conditions | mass density, [3] [kg/m3] | refractive index, [4]
288.15 K | 810.133 ± 0.15 | 1.38153 ± 0.00036
293.15 K | 804.926 ± 0.15 | 1.37892 ± 0.00036
298.15 K | 799.695 ± 0.15 | 1.37631 ± 0.00036
303.15 K | 794.435 ± 0.16 | 1.37366 ± 0.00036
308.15 K | 789.142 ± 0.16 | 1.37102 ± 0.00036
313.15 K | 783.814 ± 0.16 | 1.36834 ± 0.00036
318.15 K | 778.451 ± 0.16 | 1.36565 ± 0.00036
323.15 K | 773.047 ± 0.16 | 1.36294 ± 0.00036

CCC(C)=O [butanone] + COC(=O)c1ccccc1C(=O)OC
Conditions | mass density, [3] [kg/m3] | refractive index, [4]
288.15 K | 810.133 ± 0.15 | 1.38153 ± 0.00036
293.15 K | 804.926 ± 0.15 | 1.37892 ± 0.00036
298.15 K | 799.695 ± 0.15 | 1.37631 ± 0.00036
303.15 K | 794.435 ± 0.16 | 1.37366 ± 0.00036
308.15 K | 789.142 ± 0.16 | 1.37102 ± 0.00036
313.15 K | 783.814 ± 0.15 | 1.36834 ± 0.00036
318.15 K | 778.451 ± 0.15 | 1.36565 ± 0.00036
323.15 K | 773.047 ± 0.16 | 1.36294 ± 0.00036

COC(=O)c1ccccc1C(=O)OC [dimethyl 1,2-benzenedicarboxylate]
Conditions | mass density, [1] [kg/m3] | refractive index, [2]
288.15 K | 1196.26 ± 0.39 | 1.51779 ± 0.0004
293.15 K | 1191.59 ± 0.39 | 1.51565 ± 0.0004
298.15 K | 1186.93 ± 0.39 | 1.51354 ± 0.0004
303.15 K | 1182.28 ± 0.38 | 1.51146 ± 0.0004
308.15 K | 1177.62 ± 0.38 | 1.50943 ± 0.0004
313.15 K | 1172.97 ± 0.37 | 1.50736 ± 0.0004
318.15 K | 1168.32 ± 0.37 | 1.50524 ± 0.0004
323.15 K | 1163.67 ± 0.37 | 1.5032 ± 0.0004

COC(=O)CCCCC(=O)OC [dimethyl 1,6-hexanedioate]
Conditions | mass density, [1] [kg/m3] | refractive index, [2]
288.15 K | 1066.79 ± 0.29 | 1.4305 ± 0.0004
293.15 K | 1061.93 ± 0.28 | 1.42842 ± 0.0004
298.15 K | 1057.06 ± 0.28 | 1.42636 ± 0.0004
303.15 K | 1052.18 ± 0.28 | 1.42429 ± 0.0004
308.15 K | 1047.31 ± 0.27 | 1.42222 ± 0.0004
313.15 K | 1042.43 ± 0.27 | 1.42017 ± 0.0004
318.15 K | 1037.54 ± 0.27 | 1.41819 ± 0.0004
323.15 K | 1032.64 ± 0.26 | 1.41614 ± 0.0004
